Reference: patent publication US7683044B2, “Sphingomyelin therapy of autoimmune disease” (Center for Molecular Medicine and Immunology, priority 1999, dated 2010)
Like-named read-outs stand apart in the source and are kept apart here.

What was measured:
[1] = test system: B-cells isolated from individuals with autoimmune disease; assay: MTT cell viability, sphingomyelin enhancement of chemotherapy on B-cells (Example 5); type: cell-based, human
Protocol: (§1) Sphingomyelin enhancement of chemotherapy is evaluated by measuring its effect on 5-fluorouracil or doxorubicin (DOX) treatment of B-cells isolated from individuals with autoimmune disease and grown in culture. Cell viability is measured using the dye MTT (3-(4,5-dimethylthiazol-2-yl)-2,5-diphenyl tetrazolium bromide) in a 24-well chamber format. See Mosmann, T., J. Immunol. Methods, 65:55-63 (1983). B-cells are maintained in RPMI media supplemented with 10% fetal calf serum. Human umbilical cord venous endothelial cells (HUVEC) from pooled donors (Clonetics/BioWhittaker, San Diego, Calif.) are used as controls. Cells (10^4/well) are plated in the presence of varying concentrations of drug and sphingomyelin and grown in a humidified incubator. As an additional control, egg yolk phosphatidylcholine (PC) (Sigma, St. Louis, Mo.) is added to the cells instead of sphingomyelin. Drugs and lipids are added to HUVEC cells 24 hours after plating, but otherwise are treated the same. After four days, the media is replaced with media containing 0.5 mg/ml MTT and incubated two to four hours at 37° C. An equal volume of 0.04 N HCl in isopropanol is added, and the absorbance at 570 nm is measured. The IC50 values, defined as the concentration of drug necessary to reduce cell viability by 50%, from three to seven independent experiments are averaged and compared using ANOVA.

[2] = test system: Human umbilical cord venous endothelial cells (HUVEC); assay: MTT cell viability, control HUVEC cells (Example 5); type: cell-based
Protocol: as §1

[3] = test system: Systemic Lupus Erythematosus (SLE); assay: Therapy of systemic lupus erythematosus with sphingomyelin, epratuzumab and prednisolone (Example 2); type: in vivo, human
Excerpt: patient two is a person with two healthy children, and with a history of SLE for at least 8 years. They have received prior cyclophosphamide, azathioprine, and corticosteroid treatments, with recurrent activity flares resulting in increasing disability. They have had evidence of myelosuppression, with lymphopenia, resulting in tapering of their medications. Prior to receiving the current experimental therapy, they are confirmed to have a diagnosis of SLE according to the American College of Rheumatology revised criteria, and moderately active disease (a score of 10 for total British Isles Lupus Assessment Group (BILAG) disease activity) at study entry. Their current medication of prednisolone, 15 mg/day, is continued, and they receive epratuzumab (anti-CD22 humanized monoclonal antibody) i.v. at 360 mg/m^2 once weekly every other week for a total of 4 infusions. Prior to each infusion, they are medicated with acetaminophen (Tylenol) and antihistamine (Benadryl). They are also given an infusion of 300 mg sphingomyelin twice weekly for 8 weeks. Two and 6 weeks after completion of this therapy, they are evaluated, and it is decided that their prednisolone doses of 15 mg/day can be tapered to 10 mg/day, because of initial evidence of improvement of their BILAG scores in 3 of the 8 body systems. Four weeks later, the SLE panel of tests (autoantibodies, C3, C-reactive protein, erythrocyte sedimentation rate), and physical examination indicate progressive improvement, with less fatigue, lethargy, malaise, anorexia, reduction of malar erythemia, and reduction of arthritis. They are considered to have about a 40% improvement of their condition as a result of the investigational therapy.

[4] = test system: chronic idiopathic thrombocytopenia purpura; assay: Treatment of a patient with chronic idiopathic thrombocytopenia purpura (Example 6); type: in vivo, human
Protocol: A person with chronic idiopathic thrombocytopenia purpura has been treated with gamma globulins and high-dose dexamethasone, but the disease progresses. They undergo splenectomy, which fails to stabilize the disease. Their platelet count falls to less than 20,000/microliter, and hemorrhagic events increase in frequency. The patient is then treated with epratuzumab, 480 mg intravenously each week, plus 400 mg/wk of sphingomyelin, for a period of six weeks. Four weeks after the last dose of epratuzumab and sphingomyelin, platelet number is increased by 300%, and the hemorrhagic events disappear.

rheumatoid arthritis [5] = assay: Therapy of rheumatoid arthritis with adalimumab combined with sphingomyelin (Example 3); type: in vivo, human
Protocol: A person with 3 healthy children presents with a history of rheumatoid arthritis (RA) for 9 years, and a prior therapy history of methotrexate, leflunomide, prednisolone, sometimes in combination. They continue on their methotrexate (10 mg) and prednisolone (10 mg) daily doses, and is now given the TNF antagonist, adalimumab (Humira, Abbott Laboratories) subcutaneously at 40 mg every other week, combined with weekly infusions of sphingomyelin at a dose of 400 mg. This therapy is continued for 12 weeks, and they are evaluated for response every 4 weeks after completion of their course of therapy by ACR 20%, 50% and 70% scoring, and EULAR responses.

myasthenia gravis = assay: Treatment of a patient with myasthenia gravis, epratuzumab plus sphingomyelin (Example 8); type: in vivo, human
Protocol: A person has failed all conventional therapy for myasthenia gravis, and is admitted to a neurological intensive therapy unit. The patient is stabilized by plasma exchange, and is given intravenous immunoglobulin to reduce the titer of anti-acetylcholine receptor antibody. The patient remains bedridden, and is then treated with epratuzumab, 600 mg intravenously each week, plus 400 mg/wk of sphingomyelin, for a period of six weeks. […] Two months after the last treatment the patient is mobile, and is released from the hospital.

[6] = test system: progressive rheumatoid arthritis; type: in vivo, human
Excerpt: A person, with severe progressive rheumatoid arthritis of the finger joints, wrists, and elbows, has failed therapy with methotrexate, and obtains only minor relief when placed on Enbrel therapy.

rheumatoid arthritis [7] = assay: Therapy of rheumatoid arthritis with sphingomyelin, patient one (Example 1); type: in vivo, human
Protocol: Various forms of sphingomyelin can be obtained in powder form from Sigma Chemicals (St. Louis, Mo.). Mix 1 g of sphingomyelin powder with 9.5 ml of sterile saline or phosphate buffered saline (PBS) and QS to 10 ml. Sonicate the resulting suspension in a water bath at 80-90° C. for 1 hour. The suspension should be administered within one hour of sonication and should be approximately room temperature (25-30° C.). The suspension can be stored at 4° C.; however, it should be re-sonicated for 30 minutes in a water bath at 80-90° C. before administration. […] They have a history of rheumatoid arthritis (RA) that presented about 5 years ago, and has undergone numerous treatments with corticosteroids, cyclophosphamide, and methotrexate, with responses of reduced durations and then relapses. They now present to their rheumatologist with active RA as judged by the presence of 5 tender and 4 swollen joints (out of 44 examined), morning stiffness for more than 45 minutes, an elevated erythrocyte sedimentation rate (ESR) of 40 mm/h (Westergren method), and an elevated C-reactive protein (CRP) blood level of 80 mg/L, as well as increased levels of rheumatoid factor (RF) of IgM, IgG, and IgA isotypes. All other laboratory tests, except circulating red blood cells (mild anemia), are within the normal range. They have been taking a nonsteroidal anti-inflammatory drug (NSAID; ibuprofen), 20 mg/day of prednisolone, and doses of cyclophosphamide i.v. (750 mg). The patient is allowed to continue on these medications, and is also given i.v. infusions of sphingomyelin (prepared as described above) in phosphate-buffered sterile saline and QS twice weekly at doses of 400 mg, continuing for 3 weeks. […] The patient is considered to have improved upon adding sphingomyelin i.v. therapy to their prior medications, to which they relapsed. Subsequently, they have their prednisolone maintenance therapy tapered to 5 mg daily with 200 mg sphingomyelin given 3 times weekly for 8 weeks, and is able to function as before without any deterioration of their condition, with increase in their physical activities and general reduction in joint pain and swelling.

[8] = test system: Primary Sjogren's Syndrome (pSS); assay: Therapy of primary Sjogren's syndrome with rituximab combined with sphingomyelin (Example 4); type: in vivo, human
Protocol: They then receive a course of rituximab (Rituxan, Genentech) at 600 mg infused over 6 hours every other week for 3 doses, combined with weekly infusions of sphingomyelin at doses of 400 mg for 6 weeks. During this therapy, only 15 mg prednisolone is continued as a maintenance therapy. After the first rituximab infusion, their circulating B-cells are measured to be depleted by 90%, which continues for about 8 months. Their main subjective symptoms of dry mouth and eyes show improvement, as well as their parotid gland reduction is noted, and also an improvement in their dry cough and purpura. An improvement of the objective parameters of dry eyes and dry mouth is also observed, and this improvement is maintained for at least 3 months after this therapy course. The combination of sphingomyelin with apoptosis-inducing agent is shown to be synergistic for treatment of pSS.

[9] = B-cells, MTT after four days, from IC50 values of drug

sphingomyelin
increase of 5FU sensitivity [1, 9]: 140% | increase of DOX sensitivity [1, 9]: 340% | sensitization to 5FU or DOX therapy [2]: does not sensitize | improvement of BILAG scores, number of body systems ([3]; 2 and 6 weeks after sphingomyelin 300 mg twice weekly for 8 weeks + epratuzumab 360 mg/m^2 x4 + prednisolone 15 mg/day): 3 of the 8 body systems | improvement of condition ([3]; four weeks later, sphingomyelin + epratuzumab + prednisolone): ~40% | combination effect with prednisolone and epratuzumab ([3]; more effective than either agent alone): synergistic effect | hemorrhagic events ([4]; four weeks after last dose of epratuzumab and sphingomyelin): disappear | increase of platelet number ([4]; four weeks after last dose, epratuzumab 480 mg i.v. weekly + sphingomyelin 400 mg/wk for six weeks): 300% | disease status ([4]; three months after the last treatment): full remission | overall response (rheumatoid arthritis [5]; 6-month evaluation, anti-TNF therapy combined with sphingomyelin): good response | ACR response (rheumatoid arthritis [5]; end of 12-week course, sphingomyelin 400 mg weekly + adalimumab 40 mg s.c. every other week + methotrexate, prednisolone): ACR50 improvement | EULAR response (rheumatoid arthritis [5]; end of 12-week course, sphingomyelin + adalimumab + methotrexate, prednisolone): moderate EURAR response | tolerability of therapy (rheumatoid arthritis [5]; sphingomyelin 400 mg weekly + adalimumab, 12 weeks): tolerated well | drop in B-lymphocytes (myasthenia gravis; one week after last treatment, epratuzumab 600 mg i.v. weekly + sphingomyelin 400 mg/wk for six weeks): 50% | titer of the anti-acetylcholine (receptor antibody) (myasthenia gravis; one week after last treatment, epratuzumab + sphingomyelin): significant drop | clinical status (myasthenia gravis; two months after the last treatment): mobile | improvement in measures of disease activity ([6]; 6 months after the second therapy with veltuzumab and sphingomyelin): 70% | improvement in measures of disease activity ([6]; after 3 weeks, veltuzumab 80 mg i.v. weekly + sphingomyelin 400 mg/wk for eight weeks): 30% | duration for which the improvement is maintained ([6]; after first course of veltuzumab + sphingomyelin): 6 months | normal B-cells in the blood ([6]; veltuzumab + sphingomyelin): significantly reduced | ESR, CRP and RF factor levels above the normal range (rheumatoid arthritis [7]; 4 and 6 months after onset, therapy of prednisolone, NSAID and sphingomyelin repeated at 3 months): about 20% | reduction of joint stiffness and swelling compared to baseline (rheumatoid arthritis [7]; 4 and 6 months after onset, therapy repeated at 3 months): about 50% | improvement in the ACR20 score (rheumatoid arthritis [7]; 4 and 6 weeks after sphingomyelin 400 mg i.v. twice weekly for 3 weeks, added to ibuprofen, prednisolone, cyclophosphamide): 20% | improvement in the elevated CRP, RF and ESR levels (rheumatoid arthritis [7]; 4 and 6 weeks after sphingomyelin 400 mg i.v. twice weekly for 3 weeks, added to prior medications): about 50% | joint stiffness in the morning (rheumatoid arthritis [7]; 4 and 6 weeks later, baseline more than 45 minutes): less than 15 minutes | combination effect with standard anti-rheumatoid therapeutic agents (rheumatoid arthritis [7]; compared with either sphingomyelin or standard agents alone): more than additive effect | duration of improvement after therapy course ([8]; rituximab + sphingomyelin): at least 3 months | objective parameters of dry eyes and dry mouth ([8]; rituximab + sphingomyelin 400 mg weekly for 6 weeks, prednisolone 15 mg maintenance): improvement | combination effect with apoptosis-inducing agent ([8]; sphingomyelin with rituximab): synergistic

phosphatidylcholine [PC, reference compound]
enhancement of chemosensitivity (5FU, DOX) ([1]; lipid control added to the cells instead of sphingomyelin): does not elicit a similar effect

rituximab: Rituximab (Rituxan, anti-CD20) antibody [reference compound]
depletion of circulating B-cells ([8]; after the first rituximab infusion (600 mg), combined with weekly sphingomyelin 400 mg): 90% | duration of circulating B-cell depletion ([8]; rituximab 600 mg every other week x3 + sphingomyelin 400 mg weekly for 6 weeks): about 8 months

veltuzumab: anti-CD20 humanized Mab
human anti-veltuzumab antibodies ([6]; human, in vivo): No human anti-veltuzumab antibodies are observed
